Data published in PubChem BioAssay AID248 (DTP/NCI, 2004).
Several values for one entry are separate records, joined by “and”; a condition that tells them apart may be missing. Identical values can stand only once. Inconclusive results and toxic doses are left out. Rule as the data show it: active = T/C of 150% or more; inactive = T/C below 125%.

Test system: L1210 leukemia ip in BDF1 mice, survival T/C
Test: NCI In Vivo Anticancer Drug Screen. Data for tumor model L1210 Leukemia (intraperitoneal) in B6D2F1 (BDF1) mice
Settings: higher = longer survival
Method in brief: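 Transplanted-tumor mice were given test agent; controls received vehicle only. Survival readings from the two groups were divided (treated over control).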

[1] = endpoint: mean survival time, dose: 50.0 mg/kg/injection, schedule: Q01DX001 (ip), vehicle: carboxymethylcellulose (CMC)
[2] = endpoint: mean survival time, dose: 100.0 mg/kg/injection, schedule: Q01DX001 (ip), vehicle: carboxymethylcellulose (CMC)
[3] = endpoint: mean survival time, dose: 200.0 mg/kg/injection, schedule: Q01DX001 (ip), vehicle: carboxymethylcellulose (CMC)
[4] = endpoint: mean survival time, dose: 400.0 mg/kg/injection, schedule: Q01DX001 (ip), vehicle: carboxymethylcellulose (CMC)
[5] = endpoint: mean survival time, dose: 100.0 mg/kg/injection, schedule: Q04DX003 (ip), vehicle: saline with Tween-80
[6] = endpoint: mean survival time, dose: 200.0 mg/kg/injection, schedule: Q04DX003 (ip), vehicle: saline with Tween-80
[7] = endpoint: mean survival time, dose: 400.0 mg/kg/injection, schedule: Q04DX003 (ip), vehicle: saline with Tween-80
[8] = endpoint: mean survival time, dose: 100.0 mg/kg/injection, schedule: Q04DX003 (ip), vehicle: saline
[9] = endpoint: mean survival time, dose: 200.0 mg/kg/injection, schedule: Q04DX003 (ip), vehicle: saline
[10] = endpoint: mean survival time, dose: 400.0 mg/kg/injection, schedule: Q04DX003 (ip), vehicle: saline
[11] = endpoint: mean survival time, dose: 50.0 mg/kg/injection, schedule: Q01DX009 (ip), vehicle: saline with Tween-80
[12] = endpoint: mean survival time, dose: 100.0 mg/kg/injection, schedule: Q01DX009 (ip), vehicle: saline with Tween-80
[13] = endpoint: mean survival time, dose: 200.0 mg/kg/injection, schedule: Q01DX009 (ip), vehicle: saline with Tween-80
[14] = endpoint: mean survival time, dose: 100.0 mg/kg/injection, schedule: Q01DX001 (ip), vehicle: Klucel (hydroxypropylcellulose) (HPC)
[15] = endpoint: mean survival time, dose: 200.0 mg/kg/injection, schedule: Q01DX001 (ip), vehicle: Klucel (hydroxypropylcellulose) (HPC)

Measured: T/C

CC1CN1P1(=O)OCC(C)([N+](=O)[O-])CO1 (stereo not drawn)
inactive: [1] 106 % of control | [2] 110 % of control | [3] 104 % of control | [4] 112 % of control

Nc1nc(N)c(N=Nc2ccc(S(=O)(=O)O)cc2)c(N)n1
inactive: [5] 102 % of control | [6] 102 % of control | [7] 104 % of control

Nc1cccc(OCCOc2ccc([N+](=O)[O-])cc2)c1
inactive: endpoint: mean survival time, dose: 100.0 mg/kg/injection, schedule: Q01DX001 (ip), vehicle: saline 102 % of control | endpoint: mean survival time, dose: 200.0 mg/kg/injection, schedule: Q01DX001 (ip), vehicle: saline 104 % of control | endpoint: mean survival time, dose: 400.0 mg/kg/injection, schedule: Q01DX001 (ip), vehicle: saline 100 % of control

COC(=O)c1ccccc1N=NNc1ccc2c(=O)c3ccccc3[nH]c2c1
inactive: [8] 95 % of control | [9] 86 % of control | [10] 86 % of control

CN(C)C(SCc1c(Cl)c(Cl)c(Cl)c(Cl)c1Cl)=[N+](C)C
inactive: endpoint: mean survival time, dose: 3.0 mg/kg/injection, schedule: Q04DX002 (ip), vehicle: saline 101 % of control | endpoint: mean survival time, dose: 6.0 mg/kg/injection, schedule: Q04DX002 (ip), vehicle: saline 93 % of control | endpoint: mean survival time, dose: 12.0 mg/kg/injection, schedule: Q04DX002 (ip), vehicle: saline 104 % of control

CC(C)C/C=C/C1CCCCC1 (tested in a mixture with another compound)
inactive: [11] 101 % of control | [12] 93 % of control | [13] 97 % of control

O=C(O)c1ccc2cc(O)ccc2c1
inactive: [8] 92 % of control | [9] 98 % of control | [10] 97 % of control

CCCCCCCCCCCCCCCC(=O)N(CCC#N)CCCCN(CCC#N)C(=O)CCCCCCCCCCCCCCC
inactive: [11] 97 % of control and 106 % of control | [12] 93 % of control and 90 % of control | [13] 95 % of control and 102 % of control | endpoint: mean survival time, dose: 300.0 mg/kg/injection, schedule: Q01DX009 (ip), vehicle: saline with Tween-80 92 % of control | endpoint: mean survival time, dose: 400.0 mg/kg/injection, schedule: Q01DX009 (ip), vehicle: saline with Tween-80 98 % of control and 92 % of control | endpoint: mean survival time, dose: 500.0 mg/kg/injection, schedule: Q01DX009 (ip), vehicle: saline with Tween-80 92 % of control

Fc1nc2nc(C(F)(F)F)[nH]c2nc1F
inactive: endpoint: mean survival time, dose: 25.0 mg/kg/injection, schedule: Q01DX009 (ip), vehicle: saline with Tween-80 93 % of control | [11] 90 % of control | [12] 95 % of control | endpoint: mean survival time, dose: 100.0 mg/kg/injection, schedule: Q01DX009 (ip), vehicle: saline 103 % of control | [5] 95 % of control | [6] 105 % of control | [7] 90 % of control

C=CCN(CC=C)CCNc1cc(C)nc(/N=C(\N)Nc2ccc(Cl)c(Cl)c2)n1
inactive: endpoint: mean survival time, dose: 75.0 mg/kg/injection, schedule: Q01DX001 (ip), vehicle: other 92 % of control | endpoint: mean survival time, dose: 150.0 mg/kg/injection, schedule: Q01DX001 (ip), vehicle: other 92 % of control | endpoint: mean survival time, dose: 300.0 mg/kg/injection, schedule: Q01DX001 (ip), vehicle: other 92 % of control

CC(=O)Nc1ccc2c(c1)C(N(C)C)c1ccccc1-2 (stereo not drawn)
inactive: [1] 101 % of control | [2] 106 % of control

c1ccc2c(Cc3c4ccccc4cc4ccccc34)c3ccccc3cc2c1
inactive: endpoint: mean survival time, dose: 25.0 mg/kg/injection, schedule: Q04DX002 (ip), vehicle: Klucel (hydroxypropylcellulose) (HPC) 94 % of control | endpoint: mean survival time, dose: 50.0 mg/kg/injection, schedule: Q04DX002 (ip), vehicle: Klucel (hydroxypropylcellulose) (HPC) 97 % of control | endpoint: mean survival time, dose: 100.0 mg/kg/injection, schedule: Q04DX002 (ip), vehicle: Klucel (hydroxypropylcellulose) (HPC) 90 % of control

CC(C)=NSc1ccccc1
inactive: endpoint: mean survival time, dose: 50.0 mg/kg/injection, schedule: Q01DX001 (ip), vehicle: Klucel (hydroxypropylcellulose) (HPC) 99 % of control | [14] 97 % of control | [15] 97 % of control

CCCCCCC(CCCCCC)CCCCCC
inactive: endpoint: mean survival time, dose: 100.0 mg/kg/injection, schedule: Q01DX001 (ip), vehicle: saline with Tween-80 99 % of control | endpoint: mean survival time, dose: 200.0 mg/kg/injection, schedule: Q01DX001 (ip), vehicle: saline with Tween-80 100 % of control | endpoint: mean survival time, dose: 400.0 mg/kg/injection, schedule: Q01DX001 (ip), vehicle: saline with Tween-80 99 % of control

Cc1nc(N(C)C)nc(C)c1C#[N+][O-]
inactive: [2] 94 % of control

[Br][Sn]([Br])([CH]1CCCCC1)[CH]1CCCCC1
inactive: endpoint: mean survival time, dose: 9.38 mg/kg/injection, schedule: Q01DX001 (ip), vehicle: other 91 % of control | endpoint: mean survival time, dose: 18.75 mg/kg/injection, schedule: Q01DX001 (ip), vehicle: other 93 % of control

COc1ccc(N)cc1OC
inactive: [8] 110 % of control | [9] 105 % of control | [10] 100 % of control

CCN(CC)C(=S)S
inactive: endpoint: mean survival time, dose: 50.0 mg/kg/injection, schedule: Q04DX003 (ip), vehicle: saline 101 % of control | [2] 106 % of control | endpoint: mean survival time, dose: 100.0 mg/kg/injection, schedule: Q01DX009 (ip), vehicle: other 107 % of control | [8] 103 % of control | endpoint: mean survival time, dose: 125.0 mg/kg/injection, schedule: Q01DX010 (ip), vehicle: saline 103 % of control and 90 % of control | [3] 96 % of control | endpoint: mean survival time, dose: 200.0 mg/kg/injection, schedule: Q01DX009 (ip), vehicle: other 103 % of control | [9] 106 % of control | endpoint: mean survival time, dose: 250.0 mg/kg/injection, schedule: Q01DX010 (ip), vehicle: saline 97 % of control and 87 % of control | [4] 102 % of control | endpoint: mean survival time, dose: 400.0 mg/kg/injection, schedule: Q01DX009 (ip), vehicle: other 102 % of control | [10] 103 % of control | endpoint: mean survival time, dose: 500.0 mg/kg/injection, schedule: Q01DX010 (ip), vehicle: saline 100 % of control and 91 % of control | endpoint: mean survival time, dose: 1000.0 mg/kg/injection, schedule: Q01DX010 (ip), vehicle: saline 114 % of control | endpoint: median survival time, dose: 500.0 mg/kg/injection, schedule: Q01DX001 (ip), vehicle: saline 103 % of control | endpoint: median survival time, dose: 1000.0 mg/kg/injection, schedule: Q01DX001 (ip), vehicle: saline 108 % of control

COc1ccccc1-n1c(O)c(N=Nc2ccc(Cl)cc2)c(=O)n(-c2ccc(Br)cc2)c1=S
inactive: [14] 89 % of control | [15] 92 % of control

Cc1c(Cl)cccc1NC(=O)COc1ccc(Cl)cc1
inactive: endpoint: mean survival time, dose: 100.0 mg/kg/injection, schedule: Q01DX009 (ip), vehicle: Klucel (hydroxypropylcellulose) (HPC) 110 % of control | endpoint: mean survival time, dose: 100.0 mg/kg/injection, schedule: Q04DX003 (ip), vehicle: Klucel (hydroxypropylcellulose) (HPC) 93 % of control | endpoint: mean survival time, dose: 200.0 mg/kg/injection, schedule: Q01DX009 (ip), vehicle: Klucel (hydroxypropylcellulose) (HPC) 94 % of control | endpoint: mean survival time, dose: 200.0 mg/kg/injection, schedule: Q04DX003 (ip), vehicle: Klucel (hydroxypropylcellulose) (HPC) 91 % of control | endpoint: mean survival time, dose: 400.0 mg/kg/injection, schedule: Q01DX009 (ip), vehicle: Klucel (hydroxypropylcellulose) (HPC) 95 % of control | endpoint: mean survival time, dose: 400.0 mg/kg/injection, schedule: Q04DX003 (ip), vehicle: Klucel (hydroxypropylcellulose) (HPC) 91 % of control

S=C(Nc1ccc(Cl)c(Cl)c1)SCc1ccccc1
inactive: endpoint: mean survival time, dose: 75.0 mg/kg/injection, schedule: Q04DX003 (ip), vehicle: saline 101 % of control | endpoint: mean survival time, dose: 150.0 mg/kg/injection, schedule: Q04DX003 (ip), vehicle: saline 104 % of control | endpoint: mean survival time, dose: 300.0 mg/kg/injection, schedule: Q04DX003 (ip), vehicle: saline 101 % of control

Clc1ccccc1C=NC1CCCCC1
inactive: endpoint: mean survival time, dose: 100.0 mg/kg/injection, schedule: Q04DX002 (ip), vehicle: saline with Tween-80 96 % of control | endpoint: mean survival time, dose: 200.0 mg/kg/injection, schedule: Q04DX002 (ip), vehicle: saline with Tween-80 96 % of control | endpoint: mean survival time, dose: 400.0 mg/kg/injection, schedule: Q04DX002 (ip), vehicle: saline with Tween-80 93 % of control

NC(N)=N/N=C/c1ccccc1Cl
inactive: endpoint: mean survival time, dose: 4.0 mg/kg/injection, schedule: Q01DX Z (ip), vehicle: saline 97 % of control | endpoint: mean survival time, dose: 8.0 mg/kg/injection, schedule: Q01DX Z (ip), vehicle: saline 97 % of control | endpoint: mean survival time, dose: 16.0 mg/kg/injection, schedule: Q01DX Z (ip), vehicle: saline 102 % of control
